Assays:
Hepa1-6 HCC tumors = experiment: Hepa1-6 tumor growth and eradication in syngeneic C57L mice; assay type: in vivo
Procedure: To test whether 32-134D inhibits HCC growth in an immunocompetent mouse model, we injected Hepa1-6 HCC cells into the flank of syngeneic C57L mice ([54]). When tumors became palpable (treatment day 1), mice received intraperitoneal injections of 32-134D (40 mg/kg/day) versus vehicle control, or anti-PD1 antibody versus IgG2a isotype control (200 μg on days 1, 4, 7, 10, 13, and 16), or both 32-134D and anti-PD1. Tumors grew very rapidly in all mice treated with vehicle or IgG2a, necessitating euthanasia on or before day 24 (Figure 4, A and C). Tumors regressed in 5 out of 12 mice treated with anti-PD1, but 2 tumors recurred after the last antibody treatment (on day 16) for a tumor eradication rate of only 25% (Figure 4D). […] Thus, addition of 32-134D increased the percentage of mice with a complete response to anti-PD1 immune checkpoint blockade from 25% to 67% (Figure 4F).
Figure 4 Effect of anti-PD1 and 32-134D on Hepa1-6 tumor growth in syngeneic mice. […]
Female nude mice (NCI Athymic NCr-nu/nu) and male C57L mice were purchased from Charles River and The Jackson Laboratory, respectively. Hep3B (8 × 10^6) and Hepa1-6 (1 × 10^7) cells were resuspended in PBS and Matrigel (1:1, vol/vol) and implanted subcutaneously in 6- to 8-week-old mice, and tumor volume was calculated as V = abc × 0.52. […]

Hepa1-6 tumors = experiment: Intratumoral mRNA (RT-qPCR, RT-qPCR array) and protein (ELISA) expression in Hepa1-6 tumors; assay type: in vivo, C57L mice
Procedure: By contrast, the expression of mRNAs encoding the chemokine CXCL1 and interleukins IL-6 and IL-10, which recruit/activate TAMs and/or MDSCs (Supplemental Table 4), was inhibited by 32-134D treatment (P < 0.05; Figure 6D).
Figure 6 Effect of 32-134D on intratumoral gene expression. (A–D) C57L mice were injected with Hepa1-6 HCC cells subcutaneously and when tumors reached a volume of 200 mm^3, the mice were treated with vehicle (blue bars) or 32-134D (40 mg/kg; red bars) by daily intraperitoneal injection for 8 days. The tumors were harvested and mRNA was quantified by RT-qPCR and normalized to blue (mean ± SEM, n = 4). *P < 0.05 versus blue (ANOVA with Bonferroni’s post hoc test). (E) Effect of 32-134D on intratumoral expression of cytokines and chemokines. Total RNA isolated from tumors of 32-134D–treated versus vehicle-treated mice (n = 3 each) was analyzed using an RT-qPCR array and the ratio of mean expression (32-134D/vehicle) was determined. mRNAs with a significant difference between groups (P < 0.05, Student’s t test) are annotated.
Figure 7 Effect of 32-134D on intratumoral expression of immunoregulatory proteins. (A–H) Lysates prepared from tumors of 32-134D–treated versus vehicle-treated mice were subjected to ELISA for secreted proteins mediating antitumor immunity (CXCL2, CXCL9, CXCL10) or immunosuppression (CXCL1, IL-6, IL-10, VEGFA). The data are presented as mean ± SEM (n = 4 each). *P < 0.05 (Mann-Whitney test).
Tumors were homogenized in ice-cold PBS supplemented with 1% Triton X-100 and PIs, centrifuged at 10,000g for 20 minutes to pellet debris, and the supernatant was collected for ELISA using commercial kits (Supplemental Table 6). Optical density was obtained at 450 nm (corrected for readings at 570 nm) using the VICTOR Nivo plate reader. Sample protein concentration was calculated by linear regression from a standard curve.
Total RNA from Hepa1-6 tumors was analyzed using the RT^2 Profiler PCR Array of Mouse Cytokines and Chemokines (Supplemental Table 6) according to the manufacturer’s instructions.

[1] = RT-qPCR array of 84 mRNAs, P < 0.05
[2] = RT-qPCR, 40 mg/kg, 8 days, P < 0.05

Brc1ccc2c(-c3csc(-c4c[nH]c5c(Br)cccc45)n3)c[nH]c2c1 [Compound 32-134D]
tumor growth (Hepa1-6 HCC tumors; 40 mg/kg/day ip): inhibition of tumor growth in all mice
mice with tumor eradication (Hepa1-6 HCC tumors; 12 mice per group): 4 of 12
CXCL1, IL-6, IL-10, and VEGFA protein in tumor lysates (Hepa1-6 tumors; ELISA): decreased levels
CXCL2, CXCL9, and CXCL10 protein in tumor lysates (Hepa1-6 tumors; ELISA, P < 0.05): significantly increased levels
number of cytokine/chemokine mRNAs with decreased expression (Hepa1-6 tumors; [1]): 40 mRNAs
number of cytokine/chemokine mRNAs with increased expression (Hepa1-6 tumors; [1]): 5 mRNAs
tumor expression of CXCL1, IL-6 and IL-10 mRNA (Hepa1-6 tumors; [2]): inhibited
tumor expression of CXCL9, CXCL10, and IFN-γ mRNA (Hepa1-6 tumors; [2]): increased
tumor mRNAs encoding angiogenic factors (ANGPTL4, EPO, PGF, VEGFA) and immunosuppression proteins (B7H4, CD47, CD73, PDL1, SLC2A1, HAVCR2, CD70, LDHA, ENTPD1, CA9) (Hepa1-6 tumors; [2]): significantly decreased

Reference: publication PMC9057582, “HIF inhibitor 32-134D eradicates murine hepatocellular carcinoma in combination with anti-PD1 therapy” (The Journal of Clinical Investigation, 2022)
